Test results from the supplement of paper PMC10307832.

Experiments:
Assay in all cases: relative viability (nuclei count vs DMSO), 5 days (fraction); higher = more cells survive
[1] = compound: Cc1ccc(C(=O)N(CCCN)[C@@H](c2nc3cc(Cl)ccc3c(=O)n2Cc2ccccc2)C(C)C)cc1 [Ispinesib] + CC(=O)Nc1cccc(-n2c(=O)n(C3CC3)c(=O)c3c(Nc4ccc(I)cc4F)n(C)c(=O)c(C)c32)c1 [Trametinib] (partner 0.02 µM)
Summary of the method: (§1)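 Lung cancer cell lines were pin-tool dosed in 1536-well plates on the day after seeding, with either a lone drug or a fixed anchor-drug dose plus five library-drug doses (not always all listed) in √10 steps. Nuclei were counted on 4× images after 5 days. Relative viability is the ratio of treated-well to vehicle-well nuclei counts, with each value a median of duplicate plates.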

[2] = compound: Cc1ccc(C(=O)N(CCCN)[C@@H](c2nc3cc(Cl)ccc3c(=O)n2Cc2ccccc2)C(C)C)cc1 [Ispinesib] + COc1cccc2cc(-c3nc([C@H]4CC[C@H](C(=O)O)CC4)n4ncnc(N)c34)[nH]c12 [OSI-027] (partner 0.5 µM)
Summary of the method: as §1

[3] = compound: Cc1ccc(C(=O)N(CCCN)[C@@H](c2nc3cc(Cl)ccc3c(=O)n2Cc2ccccc2)C(C)C)cc1 [Ispinesib] + CS(=O)(=O)N1CCN(Cc2cc3nc(-c4cccc5[nH]ncc45)nc(N4CCOCC4)c3s2)CC1 [Pictilisib] (partner 1 µM)
Summary of the method: as §1

[4] = compound: Cc1ccc(C(=O)N(CCCN)[C@@H](c2nc3cc(Cl)ccc3c(=O)n2Cc2ccccc2)C(C)C)cc1 [Ispinesib] + Cc1nc(NC(=O)N2CCC[C@H]2C(N)=O)sc1-c1ccnc(C(C)(C)C(F)(F)F)c1 [Alpelisib] (partner 2 µM)
Summary of the method: as §1

Cell Line	relative viability ([1]; first compound 0.001 µM)	relative viability ([1]; first compound 0.003162 µM)	relative viability ([1]; first compound 0.01 µM)	relative viability ([1]; first compound 0.03162 µM)	relative viability ([1]; first compound 0.1 µM)	relative viability ([2]; first compound 0.001 µM)	relative viability ([2]; first compound 0.003162 µM)	relative viability ([2]; first compound 0.01 µM)	relative viability ([2]; first compound 0.03162 µM)	relative viability ([2]; first compound 0.1 µM)	relative viability ([3]; first compound 0.001 µM)	relative viability ([3]; first compound 0.003162 µM)	relative viability ([3]; first compound 0.01 µM)	relative viability ([3]; first compound 0.03162 µM)	relative viability ([3]; first compound 0.1 µM)	relative viability ([4]; first compound 0.001 µM)	relative viability ([4]; first compound 0.003162 µM)	relative viability ([4]; first compound 0.01 µM)	relative viability ([4]; first compound 0.03162 µM)	relative viability ([4]; first compound 0.1 µM)
NCI-H1915	0.29	0.323	0.314	0.279	0.22	0.679	0.514	0.751	0.252	0.212	0.969	1.07	0.977	0.532	0.232	1.09	1.16	1.03	0.958	0.979
NCI-H1944	0.431	0.408	0.36	0.383	0.334	0.398	0.449	0.426	0.338	0.17	0.402	0.398	0.341	0.288	0.219	0.861	0.803	0.851	0.508	0.634
NCI-H1975	0.345	0.337	0.364	0.158	0.158	0.781	0.819	0.991	0.258	0.127	0.295	0.276	0.272	0.153	0.164	0.738	0.672	0.666	0.332	0.226
NCI-H1993	0.619	0.527	0.414	0.508	0.423	0.518	0.601	0.565	0.514	0.442	0.808	0.828	0.806	0.7	0.611	0.697	0.637	0.709	0.663	0.596
NCI-H2009	0.28	0.271	0.287	0.203	0.151	0.702	0.695	0.618	0.212	0.211	0.782	0.804	0.58	0.0875	0.173	1.16	1.18	1.33	1.04	0.463
NCI-H2023	0.574	0.606	0.551	0.24	0.14	0.467	0.421	0.404	0.163	0.143	0.271	0.237	0.273	0.0793	0.125	0.65	0.606	0.659	0.5	0.18
NCI-H2085	0.498	0.563	0.58	0.519	0.472	0.815	0.715	0.824	0.541	0.264	0.485	0.406	0.504	0.43	0.307	0.997	1.04	1.04	1.02	0.688
NCI-H2087	0.153	0.196	0.212	0.236	0.0806	0.551	0.643	0.535	0.206	0.102	0.94	0.881	1.13	0.313	0.187	0.992	1.2	1.28	1.02	0.159
NCI-H2126	0.542	0.574	0.58	0.589	0.508	0.757	0.894	0.674	0.664	0.63	0.505	0.56	0.563	0.476	0.39	0.765	0.811	0.901	0.742	0.813
NCI-H2170	1.02	0.933	1.09	0.684	0.488	0.743	0.644	0.75	0.354	0.191	0.317	0.312	0.295	0.254	0.288	0.892	0.765	0.947	0.603	0.484
NCI-H2228	0.615	0.496	0.415	0.263	0.28	0.609	0.553	0.636	0.222	0.209	0.483	0.554	0.469	0.319	0.264	0.632	0.582	1.14	0.522	0.325
NCI-H2347	0.299	0.23	0.294	0.343	0.252	0.317	0.421	0.456	0.368	0.437	0.798	0.92	0.592	0.523	0.419	1.04	1.13	1.18	0.94	0.655
NCI-H2405	0.708	0.632	0.525	0.566	0.478	0.655	0.657	0.755	0.635	0.389	0.543	0.455	0.395	0.317	0.201	0.922	0.647	0.763	0.717	0.364
NCI-H3122	0.284	0.252	0.246	0.316	0.162	1.07	1.38	1.06	0.218	0.14	0.601	0.838	0.635	0.569	0.162	0.783	0.86	0.778	0.897	0.223
PC-3 [JPC-3]	0.717	0.83	0.689	0.664	0.375	0.703	0.841	0.851	0.627	0.431	0.751	0.812	0.876	0.628	0.53	0.992	1.09	1.07	1.06	1.11
PC-14	0.788	0.707	0.282	0.0652	0.101	0.983	0.791	0.256	0.0319	0.0859	0.796	0.668	0.78	0.232	0.169	1.01	1.05	1.05	0.942	0.174
RERF-LC-KJ	0.898	0.869	0.787	0.514	0.528	0.527	0.541	0.405	0.246	0.268	0.508	1.42	0.445	0.322	0.297	0.836	1.32	0.77	0.794	0.631
SK-LU-1	0.506	0.524	0.458	0.359	0.356	0.395	0.386	0.445	0.216	0.199	0.556	0.65	0.674	0.301	0.354	1.08	1.01	1.15	0.773	0.383
SK-MES-1	0.586	0.533	0.583	0.21	0.195	0.732	0.601	0.628	0.182	0.229	0.374	0.334	0.447	0.35	0.24	0.905	1.42	1.07	0.681	0.286
SW 1573	0.614	0.547	0.516	0.158	0.144	0.622	0.645	0.526	0.162	0.186	0.483	0.469	0.715	0.474	0.232	1	0.816	1.07	0.893	0.255
